According to paper PMC7984254 (Biochimica et biophysica acta. Molecular cell research, 2020):

What was measured:
[1] = target: FGF14:Nav1.6 complex (CLuc-FGF14 and CD4-Nav1.6 C-tail-NLuc) (Homo sapiens, UniProt Q92915+Q9UQD0); test: cell-based; conditions: for initial dose/concentration dependency against FGF14:Nav1.6: screening library compound, Suppl. Fig. 3; for activity at 30 µM: HEK293, 2 h, read-out: % luminescence, FGF14:Nav1.6 complex (HTS)
[2] = target: FGF14^Y158A:Nav1.6 (Homo sapiens, UniProt Q92915+Q9UQD0, Y153A); test: LCA dose response, FGF14^Y158A:Nav1.6 mutant complex
[3] = system: double stable HEK293 cells; test: CellTiter-Blue; assay type: cell-based; conditions: 30 μM; fluorescence read after 16 h; relative to DMSO controls
[4] = system: Nav1.6; test: Whole-cell patch-clamp electrophysiology in HEK-Nav1.6 cells; assay type: cell-based, human
[5] = system: hippocampal CA1 pyramidal neurons; test: Ex vivo patch-clamp of hippocampal CA1 pyramidal neurons in brain slices; assay type: cell-based, mice; conditions: 20 μM
[6] = target: FGF14:FGF14 dimer (CLuc-FGF14 and FGF14-NLuc) (Homo sapiens, UniProt Q92915); test: LCA counter-screen and dose response, FGF14:FGF14 homodimer; assay type: cell-based; conditions: plateau; normalized to 0.3% DMSO

NC(=O)c1cnc(N[C@@H]2CCCC[C@@H]2N)nc1Nc1cccc(-n2nccn2)c1 [PRT062607]
initial dose/concentration dependency against FGF14:Nav1.6 [1]: promising concentration dependency

C1=C/COCc2cc(ccc2OCCN2CCCC2)Nc2nccc(n2)-c2cccc(c2)COC/1 [Pacritinib]
effect on FGF14^Y158A:Nav1.6 complex compared with FGF14^WT [2]: abolished

CC(C)(O)/C=C/C(=O)[C@](C)(O)[C@H]1[C@H](O)C[C@@]2(C)[C@@H]3CC=C4[C@@H](C=C(O)C(=O)C4(C)C)[C@]3(C)C(=O)C[C@]12C [Cucurbitacin I]
activity at 30 µM [1]: 5.6%
initial dose/concentration dependency against FGF14:Nav1.6 [1]: highly potent but undesirable curve shape

O=[N+]([O-])c1ccc2c(c1)S(=O)(=O)C=C2 [Stattic]
% fluorescence from the CTB assay (cell viability) [3]: 57.2%

Cc1cnc(Nc2ccc(OCCN3CCCC3)cc2)nc1Nc1cccc(S(=O)(=O)NC(C)(C)C)c1 [Fedratinib]
V½ of activation ([4]; HEK-Nav1.6 FGF14-GFP, 20 μM): −30.56 ± 1.9 mV
V½ of steady-state inactivation ([4]; HEK-Nav1.6 FGF14-GFP, 20 μM): −60.8 ± 1.2 mV
decay time constant (τ) of INa ([4]; HEK-Nav1.6 FGF14-GFP, 20 μM): 1.4 ± 0.06 ms
peak transient Na+ current (INa) density ([4]; HEK-Nav1.6 FGF14-GFP, 20 μM): −81.27 ± 11.3 pA/pF
long-term inactivation (LTI), normalized INa at pulse 3 ([4]; HEK-Nav1.6 FGF14-GFP, 30 min incubation, pulse 3): 0.89 ± 0.02%
effect on long-term inactivation (LTI) ([4]; HEK-Nav1.6 FGF14^Y158A): no effect
peak transient Na+ current (INa) density ([4]; HEK-Nav1.6 FGF14^Y158A-GFP, 20 μM): −26.65 ± 3.5 pA/pF
V½ of activation ([4]; HEK-Nav1.6 FGF14^Y158A, 20 μM): −22.69 ± 1.2 mV
V½ of steady-state inactivation, change compared to DMSO ([4]; HEK-Nav1.6 FGF14^Y158A, 20 μM): no significant change
decay time constant (τ) of INa ([4]; HEK-Nav1.6 FGF14^Y158A, 20 μM): 1.8 ± 0.11 ms
peak transient Na+ current (INa) density ([4]; HEK-Nav1.6 GFP (channel alone), 20 μM): −59.43 ± 6.0 pA/pF
V½ of activation ([4]; HEK-Nav1.6 GFP, 20 μM): −25.7 ± 1.7 mV
V½ of steady-state inactivation ([4]; HEK-Nav1.6 GFP, 20 μM): −61.7 ± 1.0 mV
decay time constant (τ) of INa ([4]; HEK-Nav1.6 GFP, 20 μM): 1.3 ± 0.07 ms
resting membrane potential, current threshold and voltage threshold for action potential firing ([5]; Fgf14^+/+ mice): no significant changes
maximum number of evoked action potentials (AP) ([5]; Fgf14^+/+ mice, 1 hr slice incubation): 11.3 ± 1.4
evoked action potentials ([5]; Fgf14^−/− mice, 1 hr slice incubation): 11.8 ± 2.7

C[C@H]1[C@H](C)CC[C@]2(C(=O)O)CC[C@]3(C)C(=CC[C@@H]4[C@@]5(C)CC[C@H](O)C(C)(C)[C@@H]5CC[C@]43C)[C@H]12 [Ursolic Acid]
activity at 30 µM [1]: 104%

Cc1ccc2c(=O)c3ccccc3n(CCCN)c2c1C.O=C(O)C(=O)O [ER 27319]
initial dose/concentration dependency against FGF14:Nav1.6 [1]: less ideal

Cc1cnc(Nc2ccc(N3CCN(C)CC3)cc2)nc1Nc1cccc(S(=O)(=O)NC(C)(C)C)c1 [TG101209]
FGF14:FGF14^WT IMin/EMax [6]: 150.6 percent luminescence
FGF14^Y158A:Nav1.6 IMin/EMax ([2]; plateau, normalized to 0.3% DMSO): 78.0 percent luminescence

O=C(Nc1ccc([N+](=O)[O-])cc1Cl)c1cc(Cl)ccc1O [Niclosamide]
activity at 30 µM [1]: 18.7%

N#CCNC(=O)c1ccc(-c2ccnc(Nc3ccc(N4CCOCC4)cc3)n2)cc1 [Momelotinib]
effect on FGF14^Y158A:Nav1.6 complex compared with FGF14^WT [2]: abolished
